# Data reported in US20040198795A1, “Substituted imidazoliums and methods of use therefor” (priority 1996, published 2004).
# What was measured:
# [1] = molecular target: T1, AGE-BSA previously crosslinked to the collagen (Bos taurus, UniProt P02769); test: Sandwich enzyme immunoassay for breaking of AGE-BSA cross-linked to collagen; assay type: biochemical; conditions: 10 mM, 16 hours, 37° C.; for % breaking, Pr AbαAGE: primary antibody anti-AGE-RNase; for % breaking, PrAbαBSA: primary antibody anti-BSA
# T1 construct: Bovine Serum Albumin (Type V), (BSA) Calbiochem; purchased Calbiochem (BSA, Type V); Collaborative Biomedical Products (Biocoat collagen plates)
# Procedure: In order to ascertain the ability of the compounds of the instant invention to “break” or reverse already formed advanced glycosylation endproducts, a novel sandwich enzyme immunoassay was developed which detects breaking of AGE (Advanced glycosylation endproduct) moieties from AGE-crosslinked protein. […] Following an incubation period of 16 hours (37° C.) cross-link-breaking is detected using an antibody raised against AGE-ribonuclease or with an antibody against BSA. […] Details of the assay are as follows:
# 1. AGE-BSA stock solutions were prepared as follows. Sodium phosphate buffer (0.4 M) was prepared by dissolving 6 grams of monobasic sodium phosphate in 100 ml of distilled water, 7 grams of dibasic sodium phosphate (0.4 M) in 100 ml of distilled water and adjusting the pH of the dibasic solution to 7.4 with the monobasic solution. Sodium azide (0.02 grams) was added per 100 ml volume to inhibit bacterial growth. The BSA solution was prepared as follows: 400 mg of Type V BSA (bovine serum albumin) was added for each ml of sodium phosphate buffer (above). A 400 mM glucose solution was prepared by dissolving 7.2 grams of dextrose in 100 ml of sodium phosphate buffer (above). The BSA and glucose solutions were mixed 1:1 and incubated at 37° C. for 12 weeks. The pH of the incubation mixture was monitored weekly and adjusted to pH 7.4 if necessary. After 12 weeks, the AGE-BSA solution was dialyzed against PBS for 48 hours with four buffer changes, each at a 1:500 ratio of solution to dialysis buffer.
# 2. Working solutions for crosslinking and breaking studies were prepared as follows. Test compounds were dissolved in PBS and the pH was adjusted to pH 7.4 if necessary. […] The concentration of AGE-BSA necessary to achieve the optimum sensitivity was determined by initial titration of each lot of AGE-BSA.
# 1. Biocoat plates were blocked with 300 μl of “Superbloc”. Plates were blocked for one hour at room temperature and were washed with PBS-Tween three times with the Dynatech platewasher before addition of test reagents.
# 2. Each experiment was set up in the following manner. The first three wells of the Biocoat plate were used for the reagent blank. Fifty microliters of solutions AGE-BSA were added to test wells in triplicate and only PBS in blank wells.
# [2] = tested on: AGE receptor on macrophages (RAW 264.7 cells); test: Radioligand binding assay for upregulation of the AGE receptor on macrophages; assay type: cell-based; conditions: iodinated AGE-BSA
# Procedure: To study the effects of test compounds on the upregulation of the AGE receptor on macrophages, the following radioligand binding assay was utilized.
# 2. One day prior to assay, 1.0 ml of cells are plated per well onto 24 well culture plates at a concentration of 0.75×10^6 cells per ml.
# 4. […] One ml of the ligand mixture is added to the appropriate wells and the plates are place at 4° C. on a rocking platform for four hours.
# 6. To each well is added 1.0 ml of 1.0 N sodium hydroxide for fifteen to thirty minutes. The disrupted cells are removed using a cotton tipped swab. After placing the swab in the appropriate tube for gamma counting, the medium remaining in each well is collected and added to the tubes containing the swabs. Each well is washed twice with 0.5 ml of 1.0 N sodium hydroxide which is then added to the appropriate tubes.
# 7. The samples are counted in an LKB gamma counter and the final numbers are used to determine the percent specific binding as well as the Ka, the Kd and the number of receptors per cell.
# [3] = molecular target: cross-linking of glycated bovine serum albumin (AGE-BSA) to the rat tail tendon collagen (Bos taurus, UniProt P02769); test: Inhibition of cross-linking of AGE-BSA to rat tail tendon collagen coated plate (ELISA); conditions: for % Inh.: at 10 mM, PBS pH 7.4, 37° C., 4 hours
# Procedure: The following method was used to evaluate the ability of the compounds of the present invention to inhibit the cross-linking of glycated bovine serum albumin (AGE-BSA) to the rat tail tendon collagen coated 96-well plate.
# The glycated BSA was then extensively dialyzed against phosphate buffer solution (PBS) for 48 hours with additional 5 times buffer exchanges. […] The blocking solution was removed from the wells by washing the plate twice with PAS-Tween 20 solution (0.05% Tween 20) using a NUNC-multiprobe or Dynatech ELISA-plate washer. […] The unbrowned BSA in PBS buffer with or without testing compound were added to the separate wells as the blanks. The uncross-linked AGE-BSA was then removed by washing the wells three times with PBS-Tween buffer. The cross-linked AGE-BSA to the tail tendon coated plate was then quantitated by the polyclonal antibody raised against AGE-RNase. After a one-hour incubation period, AGE antibody was removed by washing 4 times with PBS-Tween.
# The bound AGE antibody was then detected with the addition of horseradish peroxidase-conjugated secondary antibody, e.g., goat anti-rabbit immunoglobulin and incubation for 30 minutes. […] The reaction was allowed for an additional 15 minutes and the absorbance was read at 410 nm in a Dynatech plate reader.
# The % inhibition of each test compound was calculated as follows.
# [4] = tested on: aortic wall protein cross-linking; conditions: diabetic rats; cited from earlier work
# [5] = tested on: immunoglobulin trapping in the kidney; conditions: Brownlee et al. 1986; cited from earlier work
# [6] = tested on: glomerular basement membrane thickness; conditions: streptozotocin-diabetic rat model; cited from earlier work
# red blood cells = conditions: in vivo; cited from earlier work
# [7] = tested on: fixed protein (gelatin, i.e., collagen) surface; test: Surface browning experiment on gelatin/paper disks with glucose-6-phosphate; conditions: Peridex at final 0.04% chlorhexidine, 100 Mm glucose-6-phosphate, one week at 50° C., pH 7.4
# Procedure: To further study the ability of inhibitors of nonenzymatic browning to prevent the discoloration of protein on a surface, such as that which occurs on the tooth surface, the following surface browning experiment is performed. As a substitute for a pellicle-covered tooth surface, unexposed and developed photographic paper is used to provide a fixed protein (gelatin, i.e., collagen) surface on a paper backing. Five millimeter circles are punched and immersed for one week at 50° C. in a solution of 100 Mm glucose-6-phosphate in a 0.5 M phosphate buffer, pH 7.4, containing 3 Mm sodium azide. Glucose-6-phosphate is a sugar capable of participating in nonenzymatic browning at a more rapid rate than glucose. In addition to the glucose-6-phosphate, chlorhexidine and/or a compound of Formula I are included. After incubation, the gelatin/paper disks are rinsed with water, observed for brown color, and photographed.
# [8] = Nordbo 1979; cited from earlier work
# T1 sequence (P02769 25-607): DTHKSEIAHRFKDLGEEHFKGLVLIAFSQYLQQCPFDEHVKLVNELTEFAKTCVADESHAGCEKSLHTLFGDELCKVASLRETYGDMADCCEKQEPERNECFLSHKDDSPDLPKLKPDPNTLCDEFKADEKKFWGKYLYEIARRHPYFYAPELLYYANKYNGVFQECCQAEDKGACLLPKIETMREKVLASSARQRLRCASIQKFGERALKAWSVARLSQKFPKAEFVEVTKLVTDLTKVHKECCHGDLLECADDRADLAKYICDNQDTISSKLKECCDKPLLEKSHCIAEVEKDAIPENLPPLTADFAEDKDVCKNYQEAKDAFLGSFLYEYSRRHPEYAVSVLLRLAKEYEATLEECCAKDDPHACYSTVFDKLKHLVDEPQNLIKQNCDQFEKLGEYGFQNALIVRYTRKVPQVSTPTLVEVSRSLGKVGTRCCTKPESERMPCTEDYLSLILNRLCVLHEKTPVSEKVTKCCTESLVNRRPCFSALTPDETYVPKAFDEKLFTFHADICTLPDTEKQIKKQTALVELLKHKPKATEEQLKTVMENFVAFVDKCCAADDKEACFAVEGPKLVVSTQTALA
# Sequence of cross-linking of glycated bovine serum albumin (AGE-BSA) to the rat tail tendon collagen (P02769 25-607): as above
compound,measurement,setting,value
Cn1cc[n+](CC(N)=O)c1.[Br-],melting point,,183 to 185 °C
Cn1cc[n+](CC(=O)c2ccccc2)c1.[Br-],melting point,,108 to 110 °C
1-methyl-3-[2-(3′-methoxyphenyl)-2-oxoethyl]-imidazolium bromide,"% breaking, Pr AbαAGE",[1],20%
same,"% breaking, PrAbαBSA",[1],24%
same,"Specific Binding Expressed as % Control, Day 1",[2],125%
same,"Specific Binding Expressed as % Control, Day 2",[2],132%
same,"Specific Binding Expressed as % Control, Day 3",[2],143%
same,"Specific Binding Expressed as % Control, Day 4",[2],360%
CCOC(=O)CCCCCn1cc[n+](CC(=O)c2cccc(OC)c2)c1.[Br-] [1-(ethoxycarbonylpentyl)-3-[2-(3′-methoxyphenyl)-2-oxoethyl]-imidazolium bromide],% Inh.,[3],40%
CCN(CC)c1ccc(C(=O)Cn2cc[n+](C)c2)cc1 [1-Methyl-3-[2-(4′-diethylaminophenyl)-2-oxo-ethyl]-imidazolium bromide],IC50,"[3]; rat, 4 h, pH 7.4",1750 µM
same,"% breaking, Pr AbαAGE",[1],32%
same,"% breaking, PrAbαBSA",[1],28%
Cn1cc[n+](CC(=O)c2ccc(Br)cc2)c1.[Br-] [1-methyl-3-[2-(4′-bromophenyl)-2-oxoethyl]-imidazolium bromide],% Inh.,[3],23%
COc1ccc(C(=O)C[n+]2ccn(C)c2)cc1.[Br-] [1-methyl-3-[2-(4′-methoxyphenyl)-2-oxoethyl]-imidazolium bromide],"% breaking, Pr AbαAGE",[1],38%
same,"% breaking, PrAbαBSA",[1],27%
same,"Specific Binding Expressed as % Control, Day 1",[2],185%
same,"Specific Binding Expressed as % Control, Day 2",[2],132%
same,"Specific Binding Expressed as % Control, Day 3",[2],145%
same,"Specific Binding Expressed as % Control, Day 4",[2],423%
N=C(N)NN [aminoguanidine],Aortic wall protein cross-linking,[4],diminishes aortic wall protein cross-linking
same,Immunoglobulin trapping in the kidney,[5],reduction of immunoglobulin trapping in the kidney
same,Increased glomerular basement membrane thickness,[6],prevented
same,Diabetes-induced changes in the deformability of red blood cells,red blood cells,prevent it
[H]/N=C(\N/C(=N/[H])NCCCCCCNC(=N)NC(=N)Nc1ccc(Cl)cc1)Nc1ccc(Cl)cc1 [chlorhexidine],Brown color of gelatin/paper disks,[7],significant browning
same,Effect on browning reactions in vitro,[8],catalyze browning reactions
benzalkonium chloride,Effect on browning reactions in vitro,[8],catalyze browning reactions
